Entries after “also recorded” stand apart in the source; their conditions may differ.
System: human transverse colon epithelial cells
Assay: Transepithelial electrical resistance (TEER) of transverse colon monolayers treated with TNFα
Assay type: cell-based
Conditions: for change in TEER as a result of TNF administration: with TNFα, 10, 20, 40 μM, after 48 hours, relative to t=0; for TEER: with TNF
Text: Cell Information: Donor 5 Transverse Colon, HISC-0033, Passage 10. Plated onto 4×96-well RepliGut® transwell plates coated with thin hydrogel coating. 2× RepliGut® transwell plates had 1.0 μm pore size (Corning 3380) and 2× RepliGut® transwell plates had 0.4 μm pore size (Corning 7369).
Compound Information: TNFα was supplied by Allis Biosystems and reconstituted according to the manufacturer's instructions. All other compounds were provided by Brightseed in DMSO (Table 1). Stocks were created for each treatment (Table 2) so that the final concentration of an individual compound in the culture media was 0.1% media volume for all compounds.
Proliferative human transverse colon epithelial cells were plated in Altis Expansion media using Altis-established protocols onto 4×96-well RepliGut® transwell plates coated with a thin layer of hydrogel. Cultures were monitored every day using a bright field microscope. Transverse colon epithelial monolayers became confluent on Day 4, at which point media was changed to Altis Differentiation media. The cells were cultured for an additional 2 days. Brightseed compounds and TNFα, listed in Table 2, were diluted in Altis Differentiation media, mixed well, and added to apical and basal compartment of transwell cultures at t=0 hours. All conditions were performed in triplicate. Cells were treated with compounds for a total of 48 hours.
Transepithelial electrical resistance was measured in all transwell cultures at t=0 hours prior to the addition of compounds to determine baseline TEER using an Epithelial Volt/Ohm Meter (World Precision Instruments, EVOM2) and STX100C96 Electrode. TEER was also measured at t=24 hours, t=45 hours, and t=48 hours. The surface area of a 96-well transwell is 0.143 cm^2 per well. Corrected TEER was calculated using the formula below.
(Raw measured TEER of sample transwell−Raw measured TEER of blank transwell)×Surface Area
Statistical analysis was performed using GraphPad Prism software version 9.4.1 (GraphPad Inc., La Jolla, CA, USA). Two-way ANOVA of means from n=3 samples per group was performed to measure simple effects within treatment groups. Tukey's range test was performed to correct for multiple comparisons. Differences between the groups were considered significant at p<0.05.

[1] = FIGS. 1-12 (TEER and permeability)

| Compound | optimal concentration of the study [1] [µM] | rank of effect among the test articles [1] | change in TEER as a result of TNF administration | change in TEER as a result of TNF administration (listed as NCT) | TEER (10 μM) | TEER (20 and 40 μM) | change in TEER as a result of TNF administration (listed as NFT) |
| --- | --- | --- | --- | --- | --- | --- | --- |
| O=C(/C=C/c1ccc(O)c(O)c1)NCCc1ccc(O)cc1 [Compound 1, N-trans-caffeoyltyramine] | 40 | greatest effect | dose-dependent and statistically significant reversal of this decrease | improved the change in TEER as a result of TNF administration in a dose-dependent manner; also recorded: protected against (a) decreased TEER | – | – | – |
| COc1cc(/C=C/C(=O)NCCc2ccc(O)cc2)ccc1O [Compound 2, N-trans-feruloyltyramine] | – | – | dose-dependent and statistically significant reversal of this decrease | – | improved TEER | did not show the same dose-dependent effect | protected against (a) decreased TEER |

Source: patent US20250205182A1, “COMPOSITIONS AND METHODS FOR IMPROVING GUT PERMEABILITY” (BRIGHTSEED, INC., priority 2022, published 2025)
